Target: T1, HIV reverse transcriptase (Human immunodeficiency virus type 1 group M subtype B, UniProt P04585)
T1 construct: Recombinant purified HIV reverse transcriptase (HIV RT); purchased Worthington Biochemical Corp (Lakewood, N.J.)
Test: Binding of HIV RT to biosensor coated with primer-template (Octet QK), with dNTP and NNRTI
Design: species or system HIV-1
Protocol: Template oligonucleotide Btn-4460-45095 and primer oligonucleotide 4496-4509AS were synthesized and analyzed (liquid chromatography-mass spectrometry (LC-MS) and electrospray ionization (ESI)) by Integrated DNA Technologies (Coralville, Iowa). Oligonucleotides were prepared in TE Buffer (10 mM Tris pH 8.0, 0.1 mM EDTA) to 100 μM. Primer and template oligonucleotides were combined (10 μM each strand) in a tube containing Annealing Buffer (10 mM Tris pH 8.0, 0.1 mM EDTA, 80 mM KCl). The tube containing primer-template solution was loaded onto a dry heat block (95° C. for 5 min), and the block was transferred to the bench top to anneal the strands by gradual cooling to ambient temperature. Uncompetitive NNRTI compounds (Pitta et al., J. Enzyme Inhib. Med. Chem. 28(10):113-22 (2013)), which is incorporated by reference herein in its entirety), were from Epigen Biosciences, Inc. (San Diego, Calif.). NNRTI compounds 7 (3-4-chloro-benzo[d]thiazol-2yl)-2-(2-chloro-6-fluorophenyl)thiazolidin-4-one) and 18 (3-(6-ethoxy-benzo[d]thiazol-2-yl)-2-(2-chloro-6-fluorophenyl)thiazolidin-4-one) were dissolved in dimethylsulfoxide (DMSO) to concentrations of 25.0 mM and 15.0 mM, respectively. Recombinant purified HIV reverse transcriptase (HIV RT) was from Worthington Biochemical Corp (Lakewood, N.J.). Ultra-pure bovine serum albumin (BSA) was from Ambion (Foster City, Calif.). All reagents and solutions were molecular biology grade.
Primer-template duplex was diluted ([…]) into Annealing Buffer. Immediately before use, HIV Reverse Transcriptase was pre-diluted into Enzyme Diluent (50 mM Tris, pH 8.0, 8 mM MgCl2). Binding buffer (50 mM Tris, pH 8.0, 160 mM KCl, 0.5 mM EDTA, 11 mM MgCl2, 0.3% (v/v) Triton X-100, 5.3 mM dithiothreitol (DTT), 100 μg/mL bovine serum albumin (BSA), 100 μM dNTP (dATP, dTTP, dGTP or dCTP), 100 nM HIV RT). NNRTI compounds were pre-diluted with DMSO immediately before being spiked into Binding Buffer. Reaction Buffer was Binding Buffer without NNRTI, dNTP or HIV RT enzyme. Buffer containing Primer-Template (PT), PT Wash Buffer, Binding buffer containing one dNTP, and Reaction Buffer were loaded (200 μL/well) into a Greiner 96-well black microplate (Sigma-Aldrich, St. Louis, Mo.; catalog number M9685). Streptavidin (SA) Biosensors (Pall ForteBio Corp., Menlo Park, Calif.; catalog number 18-5019) were re-hydrated in Annealing Buffer for approximately 10 minutes before use. The Octet QK biosensor system (Pall ForteBio Corp., Menlo Park, Calif.) was set for 30° C. operation and was programmed to coat the biosensors with Primer-Template and wash away unbound Primer-Template with PT Wash Buffer. Biosensors were transferred to Binding Buffer containing HIV RT+dCTP±NNRTI (association phase) followed by Reaction Buffer (dCTP incorporation and dissociation phase). Similarly, biosensors were transferred cyclically to solutions containing individual deoxyribonucleoside triphosphates (dATP, dGTP, dCTP or dTTP) as indicated. Cycles of binding and incorporation were repeated multiple times.
Data were imported into Microsoft Excel and Prism software (GraphPad Software, San Diego, Calif.) for display. The progress of binding and dissociation reactions was smoothed either by averaging within a 19.4-second window or by Prism software (19.4-second window and 6th-order smoothing polynomial).

Row | Compound | binding to biosensor coated with primer-template in the association phase (HIV RT + incorrect nucleotide dTTP (cycle 4) + NNRTI 80 μM, FIG. 8) | binding to biosensor coated with primer-template in the association phase (HIV reverse transcriptase + correct dNTP + NNRTI 80 μM, ALK primer-template, FIG. 8) | binding to biosensor coated with primer-template in the association phase (control: HIV RT with 80 μM NNRTI, no dNTP, FIG. 8) | binding to biosensor coated with primer-template in the association phase (HIV RT + incorrect nucleotides dCTP and dATP (cycles 7 and 8) + NNRTI 40 μM, FIG. 7A) | binding to biosensor coated with primer-template in the association phase (HIV reverse transcriptase + correct dNTP + NNRTI 40 μM, ALK primer-template, FIG. 7A) | binding to biosensor coated with primer-template in the association phase (control: HIV RT with 40 μM NNRTI, no dNTP, FIG. 7A)
1 | CCOc1ccc2nc(N3C(=O)CSC3c3c(F)cccc3Cl)sc2c1 (stereo not drawn) [NNRTI compound 18, 3-(6-ethoxy-benzo[d]thiazol-2-yl)-2-(2-chloro-6-fluorophenyl)thiazolidin-4-one] | did not show a binding peak | distinct peaks for binding | did not produce appreciable binding peaks | – | – | –
2 | O=C1CSC(c2c(F)cccc2Cl)N1c1nc2c(Cl)cccc2s1 (stereo not drawn) [NNRTI compound 7] | – | – | – | did not produce a binding peak | distinct peaks for binding | did not produce appreciable binding peaks
